The target of the first experiment is T1, Kv1.3 potassium channel (Homo sapiens, UniProt P22001).
T1 construct: expressed in transfected cells
T1 sequence (P22001 whole entry): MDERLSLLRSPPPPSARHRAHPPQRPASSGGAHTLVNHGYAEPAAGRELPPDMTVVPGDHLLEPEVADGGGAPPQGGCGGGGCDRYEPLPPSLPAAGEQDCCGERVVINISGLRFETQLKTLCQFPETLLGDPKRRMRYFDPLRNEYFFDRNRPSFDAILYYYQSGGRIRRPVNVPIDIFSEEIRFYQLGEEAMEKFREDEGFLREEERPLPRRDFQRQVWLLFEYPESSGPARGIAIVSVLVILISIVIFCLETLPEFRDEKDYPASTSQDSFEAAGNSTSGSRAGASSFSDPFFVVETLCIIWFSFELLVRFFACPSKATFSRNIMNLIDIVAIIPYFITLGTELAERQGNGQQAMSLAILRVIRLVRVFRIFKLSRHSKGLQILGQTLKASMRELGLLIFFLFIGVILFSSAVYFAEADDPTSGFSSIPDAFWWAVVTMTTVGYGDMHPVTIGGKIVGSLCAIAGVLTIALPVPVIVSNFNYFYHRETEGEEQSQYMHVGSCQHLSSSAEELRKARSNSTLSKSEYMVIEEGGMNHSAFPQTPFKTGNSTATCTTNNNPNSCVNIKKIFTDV
The experiment in a line: Kv1.3 potassium channel blocker activity, automated whole-cell patch clamp (Patchliner). The format is cell-based. Conditions: CHO-K1 cells stably expressing Kv1.3; 100 ms pulses from -90 mV to +40 mV, 0.1 Hz. How it is done: This assay is used to evaluate the disclosed compounds' activities as Kv1.3 potassium channel blockers.
CHO-K1 cells stably expressing Kv1.3 were grown in DMEM containing 10% heat-inactivated FBS, 1 mM sodium pyruvate, 2 mM L-glutamine and G418 (500 μg/ml). Cells were grown in culture flasks at 37° C. in a 5% CO2-humidified incubator.
The cells were bathed in an extracellular solution containing 140 mM NaCl, 4 mM KCl, 2 mM CaCl2), 1 mM MgCl2, 5 mM glucose, and 10 mM HEPES; pH adjusted to 7.4 with NaOH; 295-305 mOsm. The internal solution contained 50 mM KCl, 10 mM NaCl, 60 mM KF, 20 mM EGTA, and 10 mM HEPES; pH adjusted to 7.2 with KOH; 285 mOsm. All compounds were dissolved in DMSO at 30 mM. Compound stock solutions were freshly diluted with external solution to concentrations of 30 nM, 100 nM, 300 nM, 1 μM, 3 μM, 10 μM, 30 μM and 100 μM. The highest content of DMSO (0.3%) was present in 100 μM.
The currents were evoked by applying 100 ms depolarizing pulses from −90 mV (holding potential) to +40 mV were applied with 0.1 Hz frequency. Control (compound-free) and compound pulse trains for each compound concentration applied contained 20 pulses.
10-second breaks were used between pulse trains (see Table 2 below).
Whole-cell current recordings and compound application were enabled by means of an automated patch clamp platform Patchliner (Nanion Technologies GmbH). EPC 10 patch clamp amplifier (HEKA Elektronik Dr. Schulze GmbH) along with Patchmaster software (HEKA Elektronik Dr. Schulze GmbH) was used for data acquisition. Data were sampled at 10 kHz without filtering. Passive leak currents were subtracted online using a P/4 procedure (HEKA Elektronik Dr. Schulze GmbH). Increasing compound concentrations were applied consecutively to the same cell without washouts in between. Total compound incubation time before the next pulse train was not longer than 10 seconds. Peak current inhibition was observed during compound equilibration.
AUC and peak values were obtained with Patchmaster (HEKA Elektronik Dr. Schulze GmbH). To determine IC50, the last single pulse in the pulse train corresponding to a given compound concentration was used. Obtained AUC and peak values in the presence of compound were normalized to control values in the absence of compound. Using Origin (OridinLab), IC50 was derived from data fit to Hill equation: Icompound/Icontrol=(100−A)/(1+([compound]/IC50)nH)+A, where IC50 value is the concentration at which current inhibition is half-maximal, [compound] is the applied compound concentration, A is the fraction of current that is not blocked and nH is the Hill coefficient.
As a reminder, the IC50 is the midpoint of a concentration-inhibition curve. Low values mean greater potency in that assay, high ones weaker potency in that assay. Take `C[C@H](CO)C(=O)N1CC(=O)N2CC[C@H](c3c(O)ccc(Cl)c3Cl)C[C@@H]2C1` [Compound 20, (8S,9aR)-8-(2,3-dichloro-6-hydroxyphenyl)-2-((R)-3-hydroxy-2-methylpropanoyl)octahydro-4H-pyrido[1,2-a]pyrazin-4-one]: the IC50 was < 1000 nM.

In the case of `CO[C@@H](CO)C(=O)N1CC(=O)N2CC[C@@H](c3c(O)ccc(Cl)c3Cl)C[C@H]2C1` [Compound 56, (8R,9aS)-8-(2,3-dichloro-6-hydroxyphenyl)-2-[(2S)-3-hydroxy-2-methoxypropanoyl]-hexahydro-1H-pyrido[1,2-a]pyrazin-4-one], the IC50 is < 1000 nM.

On to `O=C1[C@H](CO)OC[C@@H]2C[C@H](c3c(O)ccc(Cl)c3Cl)CCN12` (single isomer, unassigned) [Compound 43], for which the IC50 was < 1000 nM.

Regarding `C[C@H]1C(=O)N2C[C@@H](c3c(O)ccc(Cl)c3Cl)C[C@H]2CN1C(=O)CO` [Compound 60, (3S,7R,8aS)-7-(2,3-dichloro-6-hydroxyphenyl)-2-(2-hydroxyacetyl)-3-methyl-hexahydropyrrolo[1,2-a]pyrazin-4-one], the IC50 is < 1000 nM.

Consider `O=C1[C@@H](CO)NC[C@H]2C[C@@H](c3c(O)ccc(Cl)c3Cl)CCN12` [Compound 36, (3R,8S,9aR)-8-(2,3-dichloro-6-hydroxyphenyl)-3-(hydroxymethyl)-octahydropyrido[1,2-a]pyrazin-4-one], for which the half-maximal inhibitory concentration (IC50) is < 1000 nM.

Take `O=C(CO)N1CC(=O)N2CC[C@H](c3c(O)cc(Cl)c(Cl)c3Cl)C[C@@H]2C1` [Compound 5, (8S,9aR)-2-(2-hydroxyacetyl)-8-(2,3,4-trichloro-6-hydroxyphenyl)-hexahydro-1H-pyrido[1,2-a]pyrazin-4-one]: the 50% inhibitory concentration (IC50) was < 1000 nM.

Consider `C[C@@H](O)CC(=O)N1CC(=O)N2C[C@@H](c3c(O)ccc(Cl)c3Cl)C[C@H]2C1` [Compound 53, (7R,8aS)-7-(2,3-dichloro-6-hydroxyphenyl)-2-[(3R)-3-hydroxybutanoyl]-hexahydropyrrolo[1,2-a]pyrazin-4-one], for which the IC50 was < 1000 nM.

In the case of `O=C(CO)N1CC(=O)N2C[C@H](c3c(O)ccc(Cl)c3Cl)CC[C@@H]2C1` (relative stereo) [Compound 26, (7S,9aR)-rel-7-(2,3-dichloro-6-hydroxyphenyl)-2-(2-hydroxyacetyl)-hexahydro-1H-pyrido[1,2-a]pyrazin-4-one], the half-maximal inhibitory concentration (IC50) was < 10000 nM.

Regarding `O=C(CCO)N1CC(=O)N2CC[C@H](c3c(O)ccc(Cl)c3Cl)C[C@@H]2C1` [Compound 58, (8S,9aR)-8-(2,3-dichloro-6-hydroxyphenyl)-2-(3-hydroxy-propanoyl)octahydro-4H-pyrido[1,2-a]pyrazin-4-one], the IC50 is < 1000 nM.

Turning to `CC(C)(O)C(=O)N1CC(=O)N2CC[C@@H](c3c(O)ccc(Cl)c3Cl)C[C@H]2C1` [Compound 31, (8R,9aS)-8-(2,3-dichloro-6-hydroxyphenyl)-2-(2-hydroxy-2-methylpropanoyl)octahydro-4H-pyrido[1,2-a]pyrazin-4-one], the IC50 was < 1000 nM.

As for `O=C1N[C@H](CO)CN2CC[C@H](c3c(O)ccc(Cl)c3Cl)C[C@H]12` [Compound 19, (3S,8S,9aR)-8-(2,3-dichloro-6-hydroxyphenyl)-3-(hydroxymethyl)-octahydropyrido[1,2-a]pyrazin-1-one], the IC50 is < 10000 nM.

`C[C@@H]1C(=O)N2CC[C@@H](c3c(O)ccc(Cl)c3Cl)C[C@H]2CN1C(=O)CO` [Compound 12, (3R,8R,9aS)-8-(2,3-dichloro-6-hydroxyphenyl)-2-(2-hydroxyacetyl)-3-methyloctahydro-4H-pyrido[1,2-a]pyrazin-4-one]: the IC50 was < 10000 nM.

Regarding `O=C([C@@H](O)CO)N1CC(=O)N2CC[C@H](c3c(O)ccc(Cl)c3Cl)C[C@@H]2C1` [Compound 51, (8S,9aR)-8-(2,3-dichloro-6-hydroxyphenyl)-2-[(2S)-2,3-dihydroxypropanoyl]-hexahydro-1H-pyrido[1,2-a]pyrazin-4-one], the IC50 is < 1000 nM.

The experiment is the same for the next values; noted with them: Kv1.3 potassium channel, whole-cell patch clamp.
`C=CCN1CC(=O)N2C[C@@H](c3c(O)ccc(Cl)c3Cl)C[C@H]2C1` [Compound 113, (7R,8aS)-7-(2,3-dichloro-6-hydroxyphenyl)-2-(prop-2-en-1-yl)-hexahydropyrrolo [l,2-a]pyrazin-4-one]: the IC50 was < 1000 nM.

For the compound `O=C(NCCO)[C@H]1CC(=O)N2C[C@@H](c3c(O)ccc(Cl)c3Cl)C[C@H]2C1` (single isomer, unassigned) [Compound 233], the IC50 is < 1000 nM.

With `O=C1CCCN1CC1OC[C@@H]2C[C@H](c3c(O)ccc(Cl)c3Cl)CCN2C1=O` (stereo partly drawn) [Compound 184, 1-[[(8R,9aS)-8-(2,3-dichloro-6-hydroxyphenyl)-4-oxo-hexahydro-1H-pyrido[2,1-c][1,4]oxazin-3-yl]methyl]pyrrolidin-2-one], the half-inhibitory concentration (IC50) was < 10000 nM.

Regarding `O=C1C[C@@H](O)[C@@H](O)[C@@H]2C[C@H](c3c(O)ccc(Cl)c3Cl)CN12` (relative stereo) [Compound 224, (7R,8S)-rel-(2R, 8aS)-2-(2,3-dichloro-6-hydroxyphenyl)-7,8-dihydroxy-hexahydro-1H-indolizin-5-one], the IC50 is < 1000 nM.

On to `O=C1C[C@@H](c2cc[nH]n2)C[C@@H]2C[C@H](c3c(O)ccc(Cl)c3Cl)CN12` (single isomer, unassigned) [Compound 213], for which the 50% inhibitory concentration (IC50) is < 1000 nM.

With `O=C1C[C@H](c2cc[nH]n2)C[C@@H]2C[C@H](c3c(O)ccc(Cl)c3Cl)CN12` (single isomer, unassigned) [Compound 214], the IC50 is < 10000 nM.

In the case of `CC(C)(O)[C@H]1OC(=O)N2C[C@@H](c3c(O)ccc(Cl)c3Cl)C[C@@H]12` (single isomer, unassigned) [Compound 255], the 50% inhibitory concentration (IC50) was < 1000 nM.

`CCN(CC)C(=O)N1CC(=O)N2C[C@@H](c3c(O)ccc(Cl)c3Cl)C[C@H]2C1` [Compound 99, (7R,8aS)-7-(2,3-dichloro-6-hydroxyphenyl)-N,N-diethyl-4-oxo-hexahydropyrro[1,2-a]pyrazine-2-carboxamide]: the IC50 was < 1000 nM.

In the case of `O=C1CC[C@@H]2C[C@H](c3c(O)ccc(Cl)c3Cl)CN12` [Compound 244, (6R,7aR)-6-(2,3-dichloro-6-hydroxyphenyl)-hexahydropyrrolizin-3-one], the concentration for half-maximal inhibition (IC50) is < 1000 nM.

Regarding `N#C[C@@H]1CC(=O)N2C[C@@H](c3c(O)ccc(Cl)c3Cl)C[C@H]2C1` (single isomer, unassigned) [Compound 228], the 50% inhibitory concentration (IC50) was < 1000 nM.

Take `O=C1CN(c2ccc(CO)cn2)C[C@@H]2C[C@H](c3c(O)ccc(Cl)c3Cl)CN12` [Compound 168, (7R,8aS)-7-(2,3-dichloro-6-hydroxyphenyl)-2-[5-(hydroxymethyl)pyridin-2-yl]-hexahydropyrrolo[1,2-a]pyrazin-4-one]: the concentration for half-maximal inhibition (IC50) is < 1000 nM.

Consider `Nc1cnc(N2CC(=O)N3C[C@@H](c4c(O)ccc(Cl)c4Cl)C[C@H]3C2)nc1` [Compound 170, (7R,8aS)-2-(5-aminopyrimidin-2-yl)-7-(2,3-dichloro-6-hydroxyphenyl)-hexahydropyrrolo[1,2-a]pyrazin-4-one], for which the IC50 is < 1000 nM.

As for `C[C@@H]1[C@@H]2C[C@H](c3c(O)ccc(Cl)c3Cl)CN2C(=O)CN1C(=O)CO` (single isomer, unassigned; isomer 1) [Compound 87], the IC50 was < 1000 nM.

Take `O=C1[C@H](O)C[C@@H]2C[C@H](c3c(O)ccc(Cl)c3Cl)CN12` (single isomer, unassigned) [Compound 246]: the IC50 is < 1000 nM.

Consider `NC(=O)[C@@H]1CC(=O)N2C[C@@H](c3c(O)ccc(Cl)c3Cl)C[C@H]2C1` (single isomer, unassigned) [Compound 230], for which the half-inhibitory concentration (IC50) is < 1000 nM.

For the compound `O=C1CC[C@@H](O)[C@@H]2C[C@H](c3c(O)ccc(Cl)c3Cl)CN12` (single isomer, unassigned) [Compound 227], the half-inhibitory concentration (IC50) is < 1000 nM.

For the compound `O=C1CN(C2CC[C@H](O)[C@@H]2O)C[C@@H]2C[C@H](c3c(O)ccc(Cl)c3Cl)CN12` (relative stereo) [Compound 135, (7R,8aS)-7-(2,3-dichloro-6-hydroxyphenyl)-2-[(2R,3S)-rel-2,3-dihydroxycyclopentyl]-hexahydropyrrolo [1,2-a]pyrazin-4-one], the IC50 is < 1000 nM.

As for `C[C@@H]1[C@@H]2C[C@H](c3c(O)ccc(Cl)c3Cl)CCN2C(=O)CN1C(=O)CO` (single isomer, unassigned; isomer 1) [Compound 83], the IC50 is < 10000 nM.

(Values after patent US20230049231A1 (priority 2019, published 2023).)
